According to PubChem BioAssay AID1918998 (Molecular Pharmacology Branch, DTP, NCI, 2023):

Test system: 521955-158-R2-J5-PDC complex spheroid growth
Assay: Anticancer human tumor 521955-158-R2-J5-PDC patient-derived pancreatic carcinoma cell line growth inhibition [AhR]
Details: for IC50: curve of first compound; for viability, T/C: stronger effect = lower value
Procedure, shortened: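 Spheroids combined tumor cells with HUVEC endothelial cells and human MSCs as stroma. AhR antagonists were paired with standard or investigational drugs, each dosed in half-log steps down from near clinical Cmax, or from 10 microM where Cmax was unknown.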

[1] = second compound 0.1 µM, first compound 0.0316 µM
[2] = second compound 0.1 µM, first compound 0.1 µM
[3] = second compound 0.1 µM, first compound 0.316 µM
[4] = second compound 0.1 µM, first compound 1 µM
[5] = second compound 0.1 µM, first compound 3.16 µM
[6] = second compound 0.1 µM, first compound 10 µM
[7] = second compound 0.316 µM, first compound 0.0316 µM
[8] = second compound 0.316 µM, first compound 0.1 µM
[9] = second compound 0.316 µM, first compound 0.316 µM
[10] = second compound 0.316 µM, first compound 1 µM
[11] = second compound 0.316 µM, first compound 3.16 µM
[12] = second compound 0.316 µM, first compound 10 µM
[13] = second compound 1 µM, first compound 0.0316 µM
[14] = second compound 1 µM, first compound 0.1 µM
[15] = second compound 1 µM, first compound 0.316 µM
[16] = second compound 1 µM, first compound 1 µM
[17] = second compound 1 µM, first compound 3.16 µM
[18] = second compound 1 µM, first compound 10 µM
[19] = second compound 3.16 µM, first compound 0.0316 µM
[20] = second compound 3.16 µM, first compound 0.1 µM
[21] = second compound 3.16 µM, first compound 0.316 µM
[22] = second compound 3.16 µM, first compound 1 µM
[23] = second compound 3.16 µM, first compound 3.16 µM
[24] = second compound 3.16 µM, first compound 10 µM
[25] = second compound 10 µM, first compound 0.0316 µM
[26] = second compound 10 µM, first compound 0.1 µM
[27] = second compound 10 µM, first compound 0.316 µM
[28] = second compound 10 µM, first compound 1 µM
[29] = second compound 10 µM, first compound 3.16 µM
[30] = second compound 10 µM, first compound 10 µM
[31] = second compound 0.1 µM, first compound 0.00316 µM
[32] = second compound 0.1 µM, first compound 0.01 µM
[33] = second compound 0.316 µM, first compound 0.00316 µM
[34] = second compound 0.316 µM, first compound 0.01 µM
[35] = second compound 1 µM, first compound 0.00316 µM
[36] = second compound 1 µM, first compound 0.01 µM
[37] = second compound 3.16 µM, first compound 0.00316 µM
[38] = second compound 3.16 µM, first compound 0.01 µM
[39] = second compound 10 µM, first compound 0.00316 µM
[40] = second compound 10 µM, first compound 0.01 µM
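For viability, T/C in this document: spheroids mix tumor cells with HUVEC endothelium and human MSC stroma; luminescence taken as viability surrogate after a week of drug exposure.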

Row | IC50 (second compound 0.1 µM) [nM] | IC50 (second compound 0.316 µM) [nM] | IC50 (second compound 1 µM) [nM] | IC50 (second compound 3.16 µM) [nM] | IC50 (second compound 10 µM) [nM] | SMILES | viability, T/C [1] [%] | viability, T/C [2] [%] | viability, T/C [3] [%] | viability, T/C [4] [%] | viability, T/C [7] [%] | viability, T/C [8] [%] | viability, T/C [9] [%] | viability, T/C [10] [%] | viability, T/C [13] [%] | viability, T/C [14] [%] | viability, T/C [15] [%] | viability, T/C [19] [%] | viability, T/C [20] [%] | viability, T/C [25] [%] | viability, T/C [26] [%] | further results
1 | > 10000 | > 10000 | > 10000 | > 10000 | > 10000 | CC(C)c1c(-c2ccccc2)nc2c(C#N)c[nH]n2c1=O + Cc1ccccc1N=Nc1ccc(NC(=O)c2ccnn2C)c(C)c1 | 98.1 | 125 | 80.3 | 94.7 | 115 | 95.1 | 110 | 81.5 | 88.7 | 101 | 102 | 128 | 125 | 141 | 130 | viability, T/C [5]: 81.2%; viability, T/C [6]: 97.8%; viability, T/C [11]: 82%; viability, T/C [12]: 81.6%; viability, T/C [16]: 87.8%; viability, T/C [17]: 92.6%; viability, T/C [18]: 97.8%; viability, T/C [21]: 127%; viability, T/C [22]: 114%; viability, T/C [23]: 114%; viability, T/C [24]: 114%; viability, T/C [27]: 132%; viability, T/C [28]: 123%; viability, T/C [29]: 114%; viability, T/C [30]: 103%
2 | 54.2 | 43.7 | 43.1 | 58.3 | > 100 | CC[C@@]1(O)C(=O)OCc2c1cc1n(c2=O)Cc2cc3c(CN(C)C)c(O)ccc3nc2-1 + Cc1cncc(-c2nc(NCCc3c[nH]c4ccccc34)c3ncn(C(C)C)c3n2)c1 | 72.3 | 28.1 | – | – | 61.6 | 27.1 | – | – | 56.9 | 25.9 | – | 72.6 | 30.5 | 103 | 38.5 | viability, T/C (second compound 0.1 µM, first compound 0.000316 µM): 95.1%; viability, T/C (second compound 0.1 µM, first compound 0.001 µM): 95.6%; viability, T/C [31]: 101%; viability, T/C [32]: 76.8%; viability, T/C (second compound 0.316 µM, first compound 0.000316 µM): 113%; viability, T/C (second compound 0.316 µM, first compound 0.001 µM): 105%; viability, T/C [33]: 109%; viability, T/C [34]: 78.8%; viability, T/C (second compound 1 µM, first compound 0.000316 µM): 117%; viability, T/C (second compound 1 µM, first compound 0.001 µM): 133%; viability, T/C [35]: 100%; viability, T/C [36]: 99%; viability, T/C (second compound 3.16 µM, first compound 0.000316 µM): 155%; viability, T/C (second compound 3.16 µM, first compound 0.001 µM): 141%; viability, T/C [37]: 143%; viability, T/C [38]: 111%; viability, T/C (second compound 10 µM, first compound 0.000316 µM): 214%; viability, T/C (second compound 10 µM, first compound 0.001 µM): 158%; viability, T/C [39]: 144%; viability, T/C [40]: 94.5%
3 | 1080 | 1010 | 980 | 1050 | 1810 | COc1cc(C2c3cc4c(cc3C(OC3OC5COC(C)OC5C(O)C3O)C3COC(=O)C23)OCO4)cc(OC)c1O (stereo not given) + Cc1cncc(-c2nc(NCCc3c[nH]c4ccccc34)c3ncn(C(C)C)c3n2)c1 | 102 | 107 | 85 | 52.6 | 107 | 101 | 93.2 | 49.1 | 106 | 111 | 86.5 | 112 | 126 | 179 | 126 | viability, T/C [5]: 29%; viability, T/C [6]: 25.8%; viability, T/C [11]: 27.4%; viability, T/C [12]: 19.2%; viability, T/C [16]: 50.2%; viability, T/C [17]: 27.9%; viability, T/C [18]: 23.6%; viability, T/C [21]: 118%; viability, T/C [22]: 50.9%; viability, T/C [23]: 34.4%; viability, T/C [24]: 26.2%; viability, T/C [27]: 118%; viability, T/C [28]: 56.9%; viability, T/C [29]: 31.6%; viability, T/C [30]: 25.1%
4 | < 31.6 | < 31.6 | < 31.6 | 72.6 | 108 | COc1cccc2c1C(=O)c1c(O)c3c(c(O)c1C2=O)CC(O)(C(=O)CO)CC3OC1CC(N)C(O)C(C)O1 (stereo not given) + Cc1cncc(-c2nc(NCCc3c[nH]c4ccccc34)c3ncn(C(C)C)c3n2)c1 | 53.6 | 35.6 | 36.2 | 2.01 | 49 | 35 | 39.2 | 0.95 | 51.2 | 30.6 | 46.8 | 64.2 | 37.3 | 64.2 | 48.4 | viability, T/C [5]: 6.72%; viability, T/C [6]: 11.6%; viability, T/C [11]: 6.23%; viability, T/C [12]: 14.8%; viability, T/C [16]: 1.72%; viability, T/C [17]: 5.39%; viability, T/C [18]: 16.6%; viability, T/C [21]: 41.3%; viability, T/C [22]: 2.7%; viability, T/C [23]: 8.4%; viability, T/C [24]: 12.2%; viability, T/C [27]: 29%; viability, T/C [28]: 0.47%; viability, T/C [29]: 3.33%; viability, T/C [30]: 9.06%
5 | 571 | 501 | 860 | 967 | 604 | Nc1ccn(C2OC(CO)C(O)C2(F)F)c(=O)n1 (stereo not given) + Cc1cncc(-c2nc(NCCc3c[nH]c4ccccc34)c3ncn(C(C)C)c3n2)c1 | 67.6 | 65.7 | 62.2 | 38.4 | 87.5 | 80.8 | 58.9 | 34.8 | 104 | 86 | 70.4 | 116 | 97.5 | 151 | 99.3 | viability, T/C [5]: 31.8%; viability, T/C [6]: 24.7%; viability, T/C [11]: 33.6%; viability, T/C [12]: 22.3%; viability, T/C [16]: 42.6%; viability, T/C [17]: 38.3%; viability, T/C [18]: 25.3%; viability, T/C [21]: 73.7%; viability, T/C [22]: 47.7%; viability, T/C [23]: 36%; viability, T/C [24]: 26.1%; viability, T/C [27]: 67.2%; viability, T/C [28]: 36%; viability, T/C [29]: 27.7%; viability, T/C [30]: 22.2%
6 | 936 | > 1000 | > 1000 | > 1000 | > 1000 | Nc1ncn(C2CC(O)C(CO)O2)c(=O)n1 (stereo not given) + Cc1cncc(-c2nc(NCCc3c[nH]c4ccccc34)c3ncn(C(C)C)c3n2)c1 | 101 | 95.4 | 79.6 | 48.2 | 96.4 | 82.7 | 63.9 | 55.7 | 121 | 93.9 | 82.3 | 145 | 119 | 152 | 124 | viability, T/C [31]: 92.4%; viability, T/C [32]: 84.2%; viability, T/C [33]: 102%; viability, T/C [34]: 99%; viability, T/C [35]: 112%; viability, T/C [36]: 117%; viability, T/C [16]: 57.5%; viability, T/C [37]: 148%; viability, T/C [38]: 123%; viability, T/C [21]: 115%; viability, T/C [22]: 79.8%; viability, T/C [39]: 141%; viability, T/C [40]: 110%; viability, T/C [27]: 135%; viability, T/C [28]: 76.1%
